Experimental data as given in patent US12416034B2, “Recombinant production of steviol glycosides” (EVOLVA SA, priority 2011, dated 2025).

B1: codon-optimized UGT85C2: UGT85C2 expressed from the GeneArt codon-optimized sequence; amino acid sequence unchanged (protein, UniProt Q6VAB0 1-481, looked up)
UDP-glycosyltransferase 85C2: MDAMATTEKKPHVIFIPFPAQSHIKAMLKLAQLLHHKGLQITFVNTDFIHNQFLESSGPHCLDGAPGFRFETIPDGVSHSPEASIPIRESLLRSIETNFLDRFIDLVTKLPDPPTCIISDGFLSVFTIDAAKKLGIPVMMYWTLAACGFMGFYHIHSLIEKGFAPLKDASYLTNGYLDTVIDWVPGMEGIRLKDFPLDWSTDLNDKVLMFTTEAPQRSHKVSHHIFHTFDELEPSIIKTLSLRYNHIYTIGPLQLLLDQIPEEKKQTGITSLHGYSLVKEEPECFQWLQSKEPNSVVYVNFGSTTVMSLEDMTEFGWGLANSNHYFLWIIRSNLVIGENAVLPPELEEHIKKRGFIASWCSQEKVLKHPSVGGFLTHCGWGSTIESLSAGVPMICWPYSWDQLTNCRYICKEWEVGLEMGTKVKRDEVKRLVQELMGEGGHKMRNKAKDWKEKARIAIAPNGSSSLNIDKMVKEITVLARN
B2: CPR-4: S. cerevisiae NCP1, Accession No. YHR042W (protein, UniProt P16603 2-691, looked up)
NADPH--cytochrome P450 …: PFGIDNTDFTVLAGLVLAVLLYVKRNSIKELLMSDDGDITAVSSGNRDIAQVVTENNKNYLVLYASQTGTAEDYAKKFSKELVAKFNLNVMCADVENYDFESLNDVPVIVSIFISTYGEGDFPDGAVNFEDFICNAEAGALSNLRYNMFGLGNSTYEFFNGAAKKAEKHLSAAGAIRLGKLGEADDGAGTTDEDYMAWKDSILEVLKDELHLDEQEAKFTSQFQYTVLNEITDSMSLGEPSAHYLPSHQLNRNADGIQLGPFDLSQPYIAPIVKSRELFSSNDRNCIHSEFDLSGSNIKYSTGDHLAVWPSNPLEKVEQFLSIFNLDPETIFDLKPLDPTVKVPFPTPTTIGAAIKHYLEITGPVSRQLFSSLIQFAPNADVKEKLTLLSKDKDQFAVEITSKYFNIADALKYLSDGAKWDTVPMQFLVESVPQMTPRYYSISSSSLSEKQTVHVTSIVENFPNPELPDAPPVVGVTTNLLRNIQLAQNNVNIAETNLPVHYDLNGPRKLFANYKLPVHVRRSNFRLPSNPSTPVIMIGPGTGVAPFRGFIRERVAFLESQKKGGNNVSLGKHILFYGSRNTDDFLYQDEWPEYAKKLDGSFEMVVAHSRLPNTKKVYVQDKLKDYEDQVFEMINNGAFIYVCGDAKGMAKGVSTALVGILSRGKSITTDEATELIKMLKTSGRYQEDVW

Assays:
[1] = test system: S. cerevisiae; assay: Toxicity of intermediates: growth of S. cerevisiae CEN.PK; type: cell-based; details: growth of CEN.PK transformants
Excerpt: The effect on S. cerevisiae vitality of geranyl geranyl pyrophosphate (GGPP), ent-copalyl diphosphate (CDP) or ent-kaurene production was investigated by expression of Synechococcus sp GGPPS alone (GGPP production), the GGPPS and the 50 amino acid N-terminally truncated Zea mays CDPS (see Example 16) together (CDP production), or the GGPPS, truncated CDPS and the Arabidopsis thaliana kaurene synthase (KS5) together (ent kaurene production) in the laboratory S. cerevisiae strain CEN.PK background. Genes were expressed from 2μ plasmids with GPD promoters driving transcription of truncated CDPS and KS5, while transcription of the GGPPS was driven by the ADH1 promoter. The growth of S. cerevisiae CEN.PK transformed with various combinations of these plasmids (GGPPS alone; GGPPS+truncated CDPS; or GGPPS+truncated CDPS+KS5) or plasmids without gene insertions was observed. GGPP production, and especially CDP production, was toxic to S. cerevisiae when produced as end products.

[2] = RebA solubility in water; type: physicochemical
Procedure: The solubility of RebA determines the concentration that can be used both for the whole-cell approach and for the cell-free approach. Several different solutions of RebA in water were made and left at room temperature for several days. After 24 hours of storage, RebA precipitated at concentrations of 50 mM or higher. Twenty-five mM RebA started to precipitate after 4-5 days, while 10 mM or lower concentrations remained in solution, even when stored at 4° C.

[3] = test system: Stevia rebaudiana kaurene oxidase; assay: Ent-kaurenoic acid accumulation in EFSC2386 with different CPRs (activation of KO1); type: cell-based, S. cerevisiae; details: LC-MS peak area; with KO-1 in EFSC2386
Excerpt: The CEN.PK S. Cerevisiae EFSC2386 strain and the CPRs referred to in this Example are described in the Example 11 (“Identification of S. rebaudiana KAH”). EFSC2386 contained the following integrated genes: Aspergillus nidulans Geranyl geranyl pyrophosphate synthase (GGPPS); Zea mays ent-copalyl diphosphate synthase (CDPS); Stevia rebaudiana ent-kaurene synthase (KS); and Stevia rebaudiana ent-kaurene oxidase (KO). This strain produces ent-kaurenoic acid that was detected by LC-MS analysis.
A collection of cytochrome P450 reductases (CPRs) were expressed and tested in strain EFSC2386; “CPR1” (S. rebaudiana NADPH dependent cytochrome P450 reductase, Kumar et al., Accession no. DQ269454); “ATR1” (A. thaliana CPR, Accession No. CAA23011); “ATR2” (A. thaliana CPR, Accession No. CAA46815); “CPR7” (S. rebaudiana CPR, CPR7 is similar to “CPR1”); “CPR8” (S. rebaudiana CPR, similar to Artemisia annua CPR; and “CPR4” (S. cerevisiae NCP1, Accession No. YHR042W).
Overexpression of the S. cerevisiae endogenous native CPR (referred to as CPR4 in Table 14), and especially overexpression of one of the A. thaliana CPRs namely ATR2, gives good activation of the Stevia rebaudiana kaurene oxidase (the latter called KO1 in Table 14) and results in increased accumulation of ent-kaurenoic acid. See Table 14, which presents the area under curve (AUC) of the ent-kaurenoic acid peak in the LC-MS chromatograms. KO1 is an ent-kaurenoic acid producing yeast control strain without additional overexpression of CPRs.

[4] = test system: S. cerevisiae strain BY4741; assay: Steviol-feeding experiment of S. cerevisiae strain BY4741; type: cell-based
Procedure: Further experiments were conducted to determine if the codon-optimized UGT85C2 could reduce 19-SMG accumulation and increase rubusoside and higher glycosylated steviol glycosides production. The production of 19-SMG and rubusoside were analysed in a steviol-feeding experiment of S. cerevisiae strain BY4741 expressing the wild type UGT74G1 as well as the codon-optimized UGT85C2 from high copy (2p) vectors under strong constitutive promoter (GPD1) (vectors P426-GPD and P423-GPD, respectively). Whole culture samples (without cell removal) were taken and boiled in an equal volume of DMSO for total glycosides levels. Intracellular concentrations reported were obtained by pelleting cells, and resuspending in 50% DMSO to the volume of the original culture sample taken, followed by boiling. The “total” glycosides level and the normalized intracellular level then were measured using LC-MS. Using wild type UGT74G1 and wild type UGT85C2, approximately 13.5 μM rubusoside was produced in total with a maximum normalized intracellular concentration of about 7 μM. In contrast, when wild type UGT74G1 and codon-optimized UGT85C2 were used, a maximum of 26 μM rubusoside was produced, or approximately double of what was produced using the wild type UGT85C2. Additionally, the maximum normalized intracellular concentration of rubusoside was 13 μM, again an approximate doubling of what was produced using wild type UGT85C2. […] Consequently, about 10 μM less total 19-SMG was measured for the codon-optimized UGT85C2.

[5] = co-expressed with wild type UGT74G1, steviol feeding

Sequence of Stevia rebaudiana kaurene oxidase (as listed by the source): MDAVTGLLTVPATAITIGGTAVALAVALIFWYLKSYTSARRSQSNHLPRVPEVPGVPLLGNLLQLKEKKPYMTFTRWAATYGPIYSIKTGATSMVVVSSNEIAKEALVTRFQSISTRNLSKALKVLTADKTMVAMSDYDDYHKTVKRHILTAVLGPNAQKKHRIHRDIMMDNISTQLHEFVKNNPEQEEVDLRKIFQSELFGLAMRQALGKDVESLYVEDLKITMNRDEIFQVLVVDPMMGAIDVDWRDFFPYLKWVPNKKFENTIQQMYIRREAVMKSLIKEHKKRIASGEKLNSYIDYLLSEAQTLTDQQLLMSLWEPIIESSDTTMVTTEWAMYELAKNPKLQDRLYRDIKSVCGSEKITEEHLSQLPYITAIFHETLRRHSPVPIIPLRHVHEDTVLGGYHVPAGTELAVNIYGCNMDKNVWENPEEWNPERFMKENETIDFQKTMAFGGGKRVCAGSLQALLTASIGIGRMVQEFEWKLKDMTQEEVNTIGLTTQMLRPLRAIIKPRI

| Molecule | toxicity to S. cerevisiae when produced as end product [1] | Ent-Kaurenoic Acid (AUC) [3] [AUC] | other results |
| --- | --- | --- | --- |
| C=C1CC[C@@H]2C(C)(C)CCC[C@@]2(C)[C@@H]1CC/C(C)=C/COP(=O)(O)OP(=O)(O)O [CDP, ent-copalyl diphosphate] | toxic |  |  |
| CC(C)=CCC/C(C)=C/CC/C(C)=C/CC/C(C)=C/COP(=O)(O)OP(=O)(O)O [GGPP, geranyl geranyl pyrophosphate] | toxic |  |  |
| C=C1C[C@@]23CC[C@H]4[C@@](C)(CCC[C@@]4(C)C(=O)O[C@@H]4O[C@H](CO)[C@@H](O)[C@H](O)[C@H]4O)[C@@H]2CC[C@]1(O[C@@H]1O[C@H](CO)[C@@H](O)[C@H](O[C@@H]2O[C@H](CO)[C@@H](O)[C@H](O)[C@H]2O)[C@H]1O[C@@H]1O[C@H](CO)[C@@H](O)[C@H](O)[C@H]1O)C3 [RebA, Rebaudioside A] |  |  | time until precipitation started ([2]; Twenty-five mM RebA in water): 4 to 5 days; concentration at which RebA precipitated ([2]; water, room temperature, after 24 hours of storage): ≥ 50 mM; concentration that remained in solution ([2]; water, several days, even when stored at 4° C.): ≥ 10 mM |
| C=C1C[C@@]23CC[C@@H]4C(C)(C)CCC[C@@]4(C)[C@@H]2CC[C@@H]1C3 [ent-kaurene] | not be toxic |  |  |
| ATR-2: A. thaliana CPR, Accession No. CAA46815 |  | 29412 |  |
| CPR-1: S. rebaudiana NADPH dependent cytochrome P450 reductase, Accession no. DQ269454 |  | 14113 |  |
| CPR-8: S. rebaudiana CPR, similar to Artemisia annua CPR |  | 12590 |  |
| B1 |  |  | less total 19-SMG than with wild type UGT85C2 [4]: about 10 μM; maximum intracellular concentration of 19-SMG [4, 5]: 19 µM; maximum normalized intracellular concentration of rubusoside [4, 5]: 13 µM; rubusoside produced in total [4, 5]: 26 µM |
| B2 |  | 25103 |  |
